# According to patent publication US4104384A, “1-(2'-Aroyl eth-1'yl) 2-(4"-acetamido piperazine-1"yl methyl) benzimidazoles and their therapeutical applications” (priority 1975, dated 1978):
# Legend:
# [1] = system: bronchoconstriction caused by acetylcholine; test: Anticholinergic and antibronchoconstrictive: bronchoconstriction by intravenous acetylcholine, Konzett's method; assay type: in vivo; conditions: Cavia porcellus, guinea-pig, read-out: Percentage inhibition of the bronchoconstriction; for inhibition in vivo at 25 mg/kg: intraduodenal, i.d.
# Text: Injected intravenously or intraduodenally, the compounds of formula (I) are capable of opposing bronchoconstriction caused in a guinea-pig by intravenous injection of acetylcholine and evaluated by Konzett's method.
# [2] = system: uterine horn of a female rabbit; test: Spasmolytic in vivo: contractions of the uterine horn caused by electric stimulation; conditions: 53 mg/kg/i.d.
# Protocol: (§1) The compounds of formula (I), administered intraduodenally are capable of reducing the contractions of the jejunal ansa of a rabbit, caused by electric stimulation.
# The same test was studied with the uterine horn of a female rabbit.
# For example, compound No 73.0442, administered at a dose of 53 mg/kg/i.d. reduces by 85 % for more than an hour, the contractions of the uterine horn of a female rabbit caused by electric stimulation.
# painful stretchings = test: Analgesic: painful stretchings following intraperitoneal injection of acetic acid; assay type: in vivo; conditions: po, mouse, read-out: Percentage diminution painful stretchings; for inhibition in vivo at 50 mg/kg: 50 mg/kg/p.o.
# Text: The compounds of formula (I), administered orally to a mouse, are capable of reducing the number of painful stretchings following intraperitioneal injection of acetic acid.
# Shay's ulcer = test: Anti-ulcerous properties: ulceration caused by ligature of the pylorus (Shay's ulcers), intraduodenal; assay type: in vivo; conditions: rat, read-out: Percentage reduction of Shay's ulcer
# Text: Furthermore, the compounds of formula (I) administered intraduodenally reduce the ulceration area caused by ligature of the pylorus of a rat (Shay's ulcers).
# stress ulcers = test: Anti-ulcerous properties: ulcerations in rat under stress for 7 hours, oral; assay type: in vivo; conditions: po, read-out: Percentage reduction of stress ulcers; for inhibition in vivo at 7.7 mg/kg: 7.7 mg/kg/p.o.
# jejunal ansa of a rabbit = test: Spasmolytic in vivo: contractions of the jejunal ansa caused by electric stimulation
# Text: as §1
# gastric secretion = test: Gastric antisecretory properties: gastric secretion after Shay ligature, intraduodenal; assay type: in vivo; conditions: intraduodenal, rat, read-out: Reduction of volume of gastric secretion; for inhibition in vivo at 1.5 mg/kg: 1.5 mg/kg/i.d.
# Text: Administered intraduodenally to a rat, the compounds of formula (I) are capable of reducing gastric secretion measured after Shay ligature.
# [3] = Acute toxicity, lethal dose 50; conditions: mouse, in vivo, po, read-out: Lethal dose 50 (mouse) / DL 50 (mouse) (converted)
# sub-plantar oedema = test: Anti-inflammatory: sub-plantar oedema caused by carragenine; assay type: in vivo; conditions: po, rat, read-out: Percentage reduction of sub-plantar oedema; for inhibition in vivo at 50 mg/kg: 50 mg/kg/p.o.
# arterial pressure = test: Anti-hypertensive: arterial pressure in genetically hyperstressed vigil rats (S.H.R.); assay type: in vivo, rat; conditions: 4 hours
# Protocol: The compounds of formula (I) are capable, 4 hours after their oral injection, of bringing the arterial pressure down to normal in genetically hyperstressed vigil rats (S.H.R.).
# volume of urine emitted = test: Diuretic: volume of urine emitted; assay type: in vivo; conditions: po; rat, urine volume for 6 hours following administration; read-out: DE 50 (diuretic)
# Protocol: The compounds of formula (I), administered orally to a rat, increase the volume of urine emitted, relative to controls, the volume being measured for the 6 hours following administration.
compound,measurement,setting,value
CC(C)NC(=O)CN1CCN(Cc2nc3ccccc3n2CCC(=O)c2ccccc2)CC1 [73 0442],inhibition in vivo at 25 mg/kg,[1],100%
same,reduction of the contractions of the uterine horn for more than an hour,[2],85%
same,inhibition in vivo at 100 mg/kg,painful stretchings; 100 mg/kg/p.o.,80%
same,inhibition in vivo at 7.6 mg/kg,Shay's ulcer; 7.6 mg/kg/i.d.,88%
same,inhibition in vivo at 5.2 mg/kg,stress ulcers; 5.2 mg/kg/p.o.,99%
same,Diminution of contractions of the jejunum for more than an hour,jejunal ansa of a rabbit; 26.5 mg/kg/i.d.,67%
same,inhibition in vivo at 2.1 mg/kg,gastric secretion; 2.1 mg/kg/i.d.,68%
same,LD50,[3],798 mg/kg
CCNC(=O)CN1CCN(Cc2nc3ccccc3n2CCC(=O)c2ccccc2)CC1 [74 0144],inhibition in vivo at 4 mg/kg,"[1]; iv, i.v.",100%
same,inhibition in vivo at 30 mg/kg,sub-plantar oedema; 30 mg/kg/p.o.,35%
same,inhibition in vivo at 40 mg/kg,painful stretchings; 40 mg/kg/p.o.,92%
same,inhibition in vivo at 15.5 mg/kg,Shay's ulcer; 15.5 mg/kg/i.d.,98%
same,inhibition in vivo at 7.7 mg/kg,stress ulcers,99%
same,Diminution of contractions of the jejunum for more than an hour,jejunal ansa of a rabbit; 15.5 mg/kg/i.d.,43%
same,inhibition in vivo at 1.6 mg/kg,gastric secretion; 1.6 mg/kg/i.d.,85%
same,LD50,[3],310 mg/kg
CN(C)C(=O)CN1CCN(Cc2nc3ccccc3n2CCC(=O)c2ccccc2)CC1 [74 0180],inhibition in vivo at 5 mg/kg,"[1]; iv, i.v., 5 mg/kg",100%
same,inhibition in vivo at 50 mg/kg,sub-plantar oedema,47%
same,inhibition in vivo at 50 mg/kg,painful stretchings,53%
same,inhibition in vivo at 7.7 mg/kg,Shay's ulcer; 7.7 mg/kg/i.d.,94%
same,inhibition in vivo at 7.7 mg/kg,stress ulcers,100%
same,Diminution of contractions of the jejunum for more than an hour,jejunal ansa of a rabbit; 15.4 mg/kg/i.d.,50%
same,inhibition in vivo at 1.5 mg/kg,gastric secretion,86%
same,LD50,[3],716 mg/kg
CCN(CC)C(=O)CN1CCN(Cc2nc3ccccc3n2CCC(=O)c2ccccc2)CC1 [74 0184],inhibition in vivo at 4 mg/kg,"[1]; iv, i.v.",100%
same,inhibition in vivo at 50 mg/kg,sub-plantar oedema,65%
same,inhibition in vivo at 50 mg/kg,painful stretchings,63%
same,inhibition in vivo at 7.4 mg/kg,Shay's ulcer; 7.4 mg/kg/i.d.,100%
same,inhibition in vivo at 7.4 mg/kg,stress ulcers; 7.4 mg/kg/p.o.,100%
same,Diminution of contractions of the jejunum for more than an hour,jejunal ansa of a rabbit; 14.9 mg/kg/i.d.,39%
same,inhibition in vivo at 1.5 mg/kg,gastric secretion,77%
same,LD50,[3],1300 mg/kg
O=C(CCn1c(CN2CCN(CC(=O)N3CCCCCC3)CC2)nc2ccccc21)c1ccccc1 [74 0195],inhibition in vivo at 25 mg/kg,[1],60%
same,inhibition in vivo at 50 mg/kg,painful stretchings,53%
same,inhibition in vivo at 14.2 mg/kg,Shay's ulcer; 14.2 mg/kg/i.d.,86%
same,inhibition in vivo at 7.1 mg/kg,stress ulcers; 7.1 mg/kg/p.o.,59%
same,Diminution of contractions of the jejunum of a rabbit,jejunal ansa of a rabbit; 14.2 mg/kg/i.d.,30%
same,LD50,[3],> 2000 mg/kg
CC(C)NC(=O)CN1CCN(Cc2nc3ccccc3n2CCC(=O)c2ccc([N+](=O)[O-])cc2)CC1 [74 0747],arterial pressure brought down to normal,arterial pressure; 150 mg/kg/p.o.,4 animals out of 7
same,LD50,[3],2200 mg/kg
COc1ccccc1C(=O)CCn1c(CN2CCN(CC(=O)NC(C)C)CC2)nc2ccccc21 [75 0011],arterial pressure brought down to normal,arterial pressure; 10 mg/kg/p.o.,4 animals out of 7
same,ED50,volume of urine emitted,1 mg/kg
same,inhibition in vivo at 40 mg/kg,Shay's ulcer; 40 mg/kg/i.d.,78%
same,inhibition in vivo at 20 mg/kg,stress ulcers; 20 mg/kg/p.o.,51%
same,inhibition in vivo at 25 mg/kg,gastric secretion; 25 mg/kg/i.d.,75%
same,LD50,[3],120 mg/kg
